{
  "source": "patent US20130225694A1",
  "about": "“COMPOSITIONS AND METHODS OF INHIBITING RETINAL DEGENERATION” (Oklahoma Medical Research Foundation, priority 2012, published 2013)",
  "system": "Rat Retina",
  "assay": "Light-induced retinal degeneration in rats, systemic (IP) nitrone; ERG and ONL histology",
  "conditions": "rat, in vivo",
  "procedure": "Consistent with previous publications (1-2,5), a dose of 50 mg/kg PBN and S-PBN dissolved in saline was chosen for intraperitoneal injection in the rats in the treatment group. An equal volume of saline was injected into control rats.\nA light-stress paradigm of 2,700 lux for 6 hours was used to test the effect of PBN at different time points before (0.5 hour, 3 hours, 6 hours, 12 hours, 16 hours, and 24 hours) or after (0.5 hour and 3 hours) light exposure. The effect of S-PBN was tested using the same dose and protocol of PBN at 0.5 hours before light exposure.\nElectroretinography—After light exposure, rats were returned to their dim cyclic light (5-10 lux) environment for 7 days before ERG recordings were performed. Flash ERGs were recorded with the Diagnosys Espion E2 ERG System (Diagnosys, LLC, Lowell, Mass.). Rats were maintained in total darkness overnight and prepared for ERG recording under dim red light. They were anesthetized with ketamine (120 mg/kg body weight) and xylazine (6 mg/kg body weight) intramuscularly (IM). One drop of 10% (v/v) phenylephrine was applied to the cornea to dilate the pupil, and one drop of 0.5% (v/v) proparacaine HCl was applied for local anesthesia. Rats were kept on a heating pad at 37° C. during recordings. A gold electrode was placed on the cornea, a reference electrode was positioned in the mouth, and a ground electrode was placed on the foot; rats were then placed inside a Ganzfeld illuminating sphere. Responses were differentially amplified, averaged, and stored. For the assessment of rod photoreceptor function (scotopic ERG), five strobe flash stimuli were presented at flash intensities at −2.3, −1.3, 0.7, and 2.7 log cd·s/m^2. The amplitude of the a-wave was measured from the pre-stimulus baseline to the a-wave trough. The amplitude of the b-wave was measured from the trough of the a-wave to the peak of the b-wave. For the evaluation of cone function (photopic ERG), a strobe flash stimulus (3.3 log cd·s/m^2) was presented to dilated, light-adapted (5 minutes at 1.7 log cd·s/m^2) rats. The amplitude of the cone b-wave was measured from the trough of the a-wave to the peak of the b-wave.\nHistology—After ERG recordings, rats were killed by carbon dioxide asphyxiation for light microscopic evaluation of retinal structure. Immediately after death, eyes were excised, placed in fixative (4% (w/v) paraformaldehyde, 2% (v/v) trichloroacetic acid, 20% (v/v) isopropyl alcohol, 2% (v/v) zinc chloride, and 72% (v/v) distilled water), and embedded in paraffin. Sections of 5 μm were cut along the vertical meridian through the optic nerve and stained with hematoxylin and eosin (H&E).\nThe PBN derivatives were injected intraperitoneally (IP) into albino SD rats at 50 mg/kg body weight at 0.5 hours before the start of light-damage exposure at 2,700 lux for 6 hours. After the exposure, the rats were moved to their dim cyclic room to recover for a week. Retinal damage/protection was assessed by functional analysis by ERG and structural analysis of histological sections. Dark adapted (12 hour) and Light adapted (for 2 hour) retinas were utilized as controls.",
  "data": [
    {"smiles": "CC(C)(C)/[N+]([O-])=C/c1ccccc1", "note": "[Compound 1, α-phenyl-N-tert-butyl nitrone]", "values": [
      {"measurement": "% Protection (ONL, Inferior retina)", "result": 85.0, "unit": "%"},
      {"measurement": "% Protection (ONL, Superior retina)", "result": 87.1, "unit": "%"},
      {"measurement": "retention of photoreceptor cells", "result": "approximately 90%"}
    ]}
  ]
}
